This is an account of results in patent US10821115B2, “Compounds that inhibit Mcl-1 protein” (priority 2017, dated 2020).

As usually defined, the IC50 is the point on the concentration scale where inhibition reaches its midpoint.

Assay [1] concerns human multiple myeloma cell line, OPM-2. Briefly: Cell viability assay (OPM-2 10 FBS), CellTiter-Glo. The assay is classed as cell-based. In outline:
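OPM-2 cells at 3000 cells/well in RPMI 1640 with 10% FBS were exposed to serially diluted compounds for 16 h at 37 °C, 5% CO2.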
(Cellular ATP, detected with luciferase, serves as a proxy for viable cell number.)

For assay [2], the target named is recombinant human Mcl-1 (residues 171-327) / Bim interaction (Homo sapiens (Human), UniProt Q07820). As to the kind of experiment: biochemical. The assay is classed as binding. The settings on record: read-out: Mcl-1 HTRF IC50. Background: In TR-FRET formats the signal depends on donor and acceptor labels being close together.
Chain of recombinant human Mcl-1 (residues 171-327) / Bim interaction (Q07820 171-327): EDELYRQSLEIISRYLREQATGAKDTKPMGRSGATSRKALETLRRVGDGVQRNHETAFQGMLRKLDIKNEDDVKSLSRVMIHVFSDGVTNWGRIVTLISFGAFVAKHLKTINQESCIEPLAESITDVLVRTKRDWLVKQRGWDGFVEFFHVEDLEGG
Setting [3] is: Homo sapiens, OPM-2, 16 h, read-out: OPM-2 10% FBS IC50 IP, OPM-2 cells, 10% FBS, 16 h incubation.
Where [4] appears, read: 0.1 nM Mcl-1(171-327), 0.05 nM biotin-Bim (51-76).
Where [5] appears, read: TR-FRET, Mcl-1(171-327) / biotin-Bim (51-76).

Read-outs that look alike come from different tables or passages of the source.

In the case of `COCC[C@@H]1[C@@H](C)C/C=C/[C@](CN2CCN3CCCC[C@@H]3C2)(OC)[C@@H]2CC[C@H]2CN2C[C@@]3(CCCc4cc(Cl)ccc43)COc3ccc(nc32)C(=O)NS1(=O)=O` [Example 21, (1S,3′R,6′R,7′S,8′E,11′S,12′R)-6-chloro-7′-methoxy-12′-(2-methoxyethyl)-11′-methyl-7′-((9aR)-octahydro-2H-pyrido[1,2-a]pyrazin-2-ylmethyl)-3,4-dihydro-2H, 15′H-spiro[naphthalene-1,22′-[20]oxa[13]thia[1,14,25]triazatetracyclo[14.7.2.0˜3,6˜.0˜19,24˜]pentacosa[8,16,18,24]tetraen]-15′-one 13′,13′-dioxide], the results for the IC50 in assay [1] (setting [3]) and in assay [2] (setting [4]) were 47 nM and 0.156 nM, respectively.

Turning to `CO[C@@]1(CN2CCN3CCN(C(=O)CCS(=O)(=O)c4ccccc4)C[C@H]3C2)/C=C/C[C@H](C)[C@@H](C)S(=O)(=O)NC(=O)c2ccc3c(c2)N(C[C@@H]2CC[C@H]21)C[C@@]1(CCCc2cc(Cl)ccc21)CO3` (single isomer, unassigned) [Example 295], the IC50 in assay [1] (read-out: OPM-2 10% FBS IC50 IP, OPM-2 cells, 10% FBS, 16 h incubation) was determined as 104 nM; in assay [2] (setting [4]), 0.321 nM.

With `CO[C@]1(CN2CC3(C2)CS(=O)(=O)C3)/C=C/C[C@H](C)[C@@H](C)S(=O)(=O)NC(=O)c2ccc3c(c2)N(C[C@@H]2CC[C@H]21)C[C@@]1(CCCc2cc(Cl)ccc21)CO3` [Example 224, (1S,3′R,6′R,7′R,8′E,11′S,12′R)-6-chloro-7′-((2,2-dioxido-2-thia-6-azaspiro[3.3]hept-6-yl)methyl)-7′-methoxy-11′,12′-dimethyl-3,4-dihydro-2H,15′H-spiro[naphthalene-1,22′-[20]oxa[13]thia[1,14]diazatetracyclo [14.7.2.0~3,6~.0~19,24~]pentacosa[8,16,18,24]tetraen]-15′-one 13′,13′-dioxide], the results for the IC50 in assay [1] (setting [3]) and in assay [2] (setting [4]) were 157 nM and 0.127 nM, respectively.

As to `CO[C@@]1(CN2CCN3CCOC[C@@H]3C2)/C=C/[C@H](C)[C@H](C)CS(=O)(=O)NC(=O)c2ccc3c(c2)N(C[C@@H]2CC[C@H]21)C[C@@]1(CCCc2cc(Cl)ccc21)CO3` [Example 156, (1S,3′R,6′R,7′S,8′E,10′S,11′S)-6-chloro-7′-((9aS)-hexahydropyrazino[2,1-c][1,4]oxazin-8(1H)-ylmethyl)-7′-methoxy-10′,11′-dimethyl-3,4-dihydro-2H,15′H-spiro[naphthalene-1,22′-[20]oxa[13]thia[1,14]diazatetracyclo [14.7.2.0~3,6~.0~19,24~]pentacosa[8,16,18,24]tetraen]-15′-one 13′,13′-dioxide], the values for the concentration for half-maximal inhibition (IC50) in assay [1] (setting [3]) and in assay [2] (setting [4]) were 62 nM and 0.096 nM, respectively.

On to `C[C@H](C(=O)O)[C@@]1(O)/C=C/C[C@H](C)[C@@H](C)S(=O)(=O)NC(=O)c2ccc3c(c2)N(C[C@@H]2CC[C@H]21)C[C@@]1(CCCc2cc(Cl)ccc21)CO3` (single isomer, unassigned) [Example 100120], for which the IC50 was 635 nM in assay [1] (read-out: OPM-2 10% FBS IC50 IP, OPM-2 cells, 10% FBS, 16 h, CellTiter-Glo) and 0.067 nM in assay [2] (setting [5]).

Regarding `CO[C@]1(CCN2CCOCC2)/C=C/C[C@H](C)[C@@H](C)S(=O)(=O)NC(=O)c2ccc3c(c2)N(C[C@@H]2CC[C@H]21)C[C@@]1(CCCc2cc(Cl)ccc21)CO3` [Example 100365, (1S,3′R,6′R,7′R,8′E,11′S,12′R)-6-chloro-7′-methoxy-11′,12′-dimethyl-7′-(2-(4-morpholinyl)ethyl)-3,4-dihydro-2H,15′H-spiro[naphthalene-1,22′-[20]oxa[13]thia[1,14]diazatetracyclo [14.7.2.0~3,6~.0~19,24~]pentacosa[8,16,18,24]tetraen]-15′-one 13′,13′-dioxide], the IC50 in assay [1] (Homo sapiens, OPM-2, 16 h, read-out: OPM-2 10% FBS IC50 IP, OPM-2 cells, 10% FBS, 16 h, CellTiter-Glo) came out at 245 nM; in assay [2] (setting [5]), 0.257 nM.
